Measured values reported in publication PMC7615677 (Science translational medicine, 2023).
Like-named read-outs stand apart in the source and are kept apart here.

Tests used:
CYP2D6 = molecular target: T1, CYP2D6 (Homo sapiens, UniProt P10635); assay: Cytochrome P450 inhibition, human liver microsomes; format: in vitro ADME
T1 construct: incubation of isoform-specific substrates with human liver microsomes; from tissue; host or cells: human liver microsomes
Procedure: (§1) Direct CYP inhibition studies were conducted using conditions described previously ([43]) following incubation of isoform-specific substrates with human liver microsomes. The formation of known metabolites mediated by a specific CYP isoform was monitored. CYP isoform-specific pathways (and positive control inhibitors) included CYP1A2: phenacetin O-deethylation (furafylline), CYP2B6: bupropion hydroxylation (PPP), CYP2C8: amodiaquine deethylation (quercetin) CYP2C9: tolbutamide methylhydroxylation (sulfaphenazole), CYP2C19: (S)-mephenytoin 4’-hydroxylation (ticlopidine), CYP2D6: dextromethorphan O-demethylation (quinidine), and CYP3A: midazolam 1’-hydroxylation and testosterone 6β-hydroxylation (ketoconazole). […] The organic solvent content was maintained at less than 1% (v/v). NADPH was added to initiate the reaction which was then quenched by the addition of acetonitrile containing internal standard at specified times. Concentrations of the isoform-specific metabolites were quantified by LC-MS (Waters Xevo TQD triple quadrupole MS coupled to a Waters Acquity UPLC system) relative to calibration standards prepared in pre-quenched microsomal matrix.
(§2) Time dependent inhibition was assessed using an “IC50 shift” method based on a previous publication ([44]). […] A shift in the IC50 in the presence of NADPH (relative to the absence) was used as an indication of time dependent inhibition. Reference direct and time-dependent inhibitors were included in the assays.

CYP2C8 = molecular target: T2, CYP2C8 (Homo sapiens, UniProt P10632); assay: Cytochrome P450 inhibition, human liver microsomes; format: in vitro ADME
T2 construct: incubation of isoform-specific substrates with human liver microsomes; from tissue; host or cells: human liver microsomes
T2 sequence (P10632 1-490): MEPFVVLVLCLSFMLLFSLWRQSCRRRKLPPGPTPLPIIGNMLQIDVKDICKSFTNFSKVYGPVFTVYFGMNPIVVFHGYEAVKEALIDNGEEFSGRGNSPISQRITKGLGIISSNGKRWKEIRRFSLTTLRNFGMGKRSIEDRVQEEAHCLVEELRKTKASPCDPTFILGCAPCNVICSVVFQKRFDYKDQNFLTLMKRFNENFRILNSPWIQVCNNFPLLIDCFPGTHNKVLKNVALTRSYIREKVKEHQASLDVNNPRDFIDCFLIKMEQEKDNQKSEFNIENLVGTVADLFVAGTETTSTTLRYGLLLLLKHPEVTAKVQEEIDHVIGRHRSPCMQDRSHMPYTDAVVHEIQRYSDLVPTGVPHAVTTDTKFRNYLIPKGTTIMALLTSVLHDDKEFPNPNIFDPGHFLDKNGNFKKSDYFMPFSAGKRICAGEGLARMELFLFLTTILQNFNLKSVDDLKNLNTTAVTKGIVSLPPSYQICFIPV
Procedure: as §1, §2

CYP1A2 = molecular target: T3, CYP1A2 (Homo sapiens, UniProt P05177); assay: Cytochrome P450 inhibition, human liver microsomes; format: in vitro ADME
T3 construct: incubation of isoform-specific substrates with human liver microsomes; from tissue; host or cells: human liver microsomes
T3 sequence (P05177 1-516): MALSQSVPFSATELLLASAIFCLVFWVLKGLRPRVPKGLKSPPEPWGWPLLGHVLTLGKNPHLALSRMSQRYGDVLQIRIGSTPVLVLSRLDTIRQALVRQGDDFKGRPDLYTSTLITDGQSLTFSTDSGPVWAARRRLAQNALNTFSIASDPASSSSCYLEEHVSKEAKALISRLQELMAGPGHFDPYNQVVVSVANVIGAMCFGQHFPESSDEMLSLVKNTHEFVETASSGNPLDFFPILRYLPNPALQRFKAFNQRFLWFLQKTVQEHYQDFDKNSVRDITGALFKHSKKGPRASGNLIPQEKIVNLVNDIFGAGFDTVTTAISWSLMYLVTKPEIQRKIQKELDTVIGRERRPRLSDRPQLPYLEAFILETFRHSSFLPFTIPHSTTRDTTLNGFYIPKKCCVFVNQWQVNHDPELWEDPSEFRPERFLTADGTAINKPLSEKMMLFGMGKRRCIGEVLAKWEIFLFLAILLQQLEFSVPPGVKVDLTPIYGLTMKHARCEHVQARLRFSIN
Procedure: as §1, §2

CYP3A4/5 = assay: Cytochrome P450 inhibition, human liver microsomes; format: in vitro ADME; conditions: for IC50: read-out: Direct inhibition IC50; for IC50 at 30 min: read-out: Time-dependent inhibition IC50
Procedure: as §1, §2

[1] = system: L. donovani axenic amastigotes; assay: Drug sensitivity assay, axenic amastigotes; format: cell-based; conditions: Leishmania donovani
Procedure: The clonal L. donovani cell line LdBOB (derived from MHOM/SD/62/1S-CL2D) was grown as promastigotes at 28°C and as axenic amastigotes at 37°C, as described previously ([25]).
To examine the effects of test compounds on growth in 96-well plates, promastigote or axenic amastigote cultures seeded at 5 × 10^4 parasites mL^–1 were incubated in the presence of 2-fold serial dilutions of test compounds for 72 h. Following incubation, 50 μM resazurin was added to each well and fluorescence (excitation of 528 nm and emission of 590 nm) measured after a further 3 h incubation.

[2] = In vitro cytotoxicity assay; format: cell-based; conditions: monkey, Vero monkey kidney epithelial cells
BSEP = BSEP (Homo sapiens, UniProt O95342); assay: Drug transporter inhibition panel; format: in vitro ADME; conditions: 1 and 10 μM
Source text: (§3) Listed values represent the percent change relative to the DMSO control activity. When an IC50 had to be determined, eight different concentrations were included. All values are the mean of assay readout duplicates.

OATP1B3 = molecular target: T4, OATP1B3 (Homo sapiens, UniProt Q9NPD5); assay: Drug transporter inhibition panel; format: in vitro ADME
T4 construct: Eurofins
Source text: as §3

OAT3 = molecular target: T5, OAT3 (Homo sapiens, UniProt Q8TCC7); assay: Drug transporter inhibition panel; format: in vitro ADME; conditions: 1 and 10 μM
T5 construct: Eurofins
Source text: as §3

OATP1B1 = molecular target: T6, OATP1B1 (Homo sapiens, UniProt Q9Y6L6); assay: Drug transporter inhibition panel; format: in vitro ADME
T6 construct: Eurofins
Source text: as §3

KV channel = assay: In vitro pharmacology panel (Eurofins); format: binding, rat; conditions: 10 µM
Source text: as §3

[3] = system: Ca2+ channel, (L,dihydropyridine site); assay: In vitro pharmacology panel (Eurofins); format: binding, rat; conditions: 10 µM
Source text: as §3

BZD (central) = assay: In vitro pharmacology panel (Eurofins); format: binding, rat; conditions: 10 µM
Source text: as §3

NMDA receptor = assay: In vitro pharmacology panel (Eurofins); format: binding, rat; conditions: 10 µM
Source text: as §3

Na+ channel (site 2) = assay: In vitro pharmacology panel (Eurofins); format: binding, rat; conditions: 10 µM
Source text: as §3

[4] = with NADPH preincubation, read-out: Time-dependent inhibition IC50
[5] = without NADPH preincubation, read-out: Time-dependent inhibition IC50

T1 sequence (P10635 whole entry, canonical isoform): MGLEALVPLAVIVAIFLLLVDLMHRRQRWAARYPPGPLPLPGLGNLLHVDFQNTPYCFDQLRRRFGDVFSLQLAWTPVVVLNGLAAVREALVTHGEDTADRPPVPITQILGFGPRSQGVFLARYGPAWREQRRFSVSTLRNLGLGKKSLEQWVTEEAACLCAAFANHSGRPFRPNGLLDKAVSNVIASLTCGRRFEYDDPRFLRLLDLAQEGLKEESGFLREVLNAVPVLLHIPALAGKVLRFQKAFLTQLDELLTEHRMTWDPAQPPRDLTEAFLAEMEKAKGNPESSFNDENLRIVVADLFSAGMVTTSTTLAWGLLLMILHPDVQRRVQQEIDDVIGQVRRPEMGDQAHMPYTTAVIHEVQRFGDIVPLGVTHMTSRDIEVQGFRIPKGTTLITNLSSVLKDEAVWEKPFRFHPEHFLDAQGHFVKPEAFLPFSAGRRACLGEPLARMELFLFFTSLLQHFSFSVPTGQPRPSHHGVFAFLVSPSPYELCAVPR
T4 sequence (Q9NPD5 whole entry): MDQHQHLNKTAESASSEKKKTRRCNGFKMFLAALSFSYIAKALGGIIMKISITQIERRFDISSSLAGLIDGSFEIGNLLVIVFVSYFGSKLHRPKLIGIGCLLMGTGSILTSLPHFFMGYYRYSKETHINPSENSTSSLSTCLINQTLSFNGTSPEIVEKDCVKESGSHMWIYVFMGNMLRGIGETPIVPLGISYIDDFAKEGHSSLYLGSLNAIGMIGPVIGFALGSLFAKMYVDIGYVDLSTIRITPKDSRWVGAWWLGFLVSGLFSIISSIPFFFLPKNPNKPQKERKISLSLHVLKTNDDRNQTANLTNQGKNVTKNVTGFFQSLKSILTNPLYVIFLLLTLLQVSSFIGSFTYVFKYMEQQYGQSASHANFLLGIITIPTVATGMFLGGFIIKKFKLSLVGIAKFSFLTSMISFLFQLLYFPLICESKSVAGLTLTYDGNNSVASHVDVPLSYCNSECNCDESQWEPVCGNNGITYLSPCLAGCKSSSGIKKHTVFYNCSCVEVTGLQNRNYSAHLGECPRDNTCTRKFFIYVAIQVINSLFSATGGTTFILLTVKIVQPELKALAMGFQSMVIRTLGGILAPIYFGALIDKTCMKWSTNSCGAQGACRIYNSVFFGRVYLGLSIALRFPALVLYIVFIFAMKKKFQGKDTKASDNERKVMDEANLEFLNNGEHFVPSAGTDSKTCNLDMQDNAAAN
T5 sequence (Q8TCC7 whole entry): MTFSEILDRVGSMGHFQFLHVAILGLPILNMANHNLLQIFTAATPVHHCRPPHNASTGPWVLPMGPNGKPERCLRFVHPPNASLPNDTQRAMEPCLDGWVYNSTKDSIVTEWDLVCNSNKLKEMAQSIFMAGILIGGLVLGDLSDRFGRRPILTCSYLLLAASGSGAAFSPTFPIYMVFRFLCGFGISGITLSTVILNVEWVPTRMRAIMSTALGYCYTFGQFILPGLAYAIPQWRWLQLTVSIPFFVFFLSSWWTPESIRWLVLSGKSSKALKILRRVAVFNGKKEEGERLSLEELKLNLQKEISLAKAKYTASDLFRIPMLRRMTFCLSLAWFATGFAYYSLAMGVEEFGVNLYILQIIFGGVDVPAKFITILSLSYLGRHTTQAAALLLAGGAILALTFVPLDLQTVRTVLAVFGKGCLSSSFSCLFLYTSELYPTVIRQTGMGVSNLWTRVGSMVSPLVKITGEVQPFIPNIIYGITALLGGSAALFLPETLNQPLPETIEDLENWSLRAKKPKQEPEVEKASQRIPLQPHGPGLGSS
Chain of BSEP (O95342 whole entry, species assumed): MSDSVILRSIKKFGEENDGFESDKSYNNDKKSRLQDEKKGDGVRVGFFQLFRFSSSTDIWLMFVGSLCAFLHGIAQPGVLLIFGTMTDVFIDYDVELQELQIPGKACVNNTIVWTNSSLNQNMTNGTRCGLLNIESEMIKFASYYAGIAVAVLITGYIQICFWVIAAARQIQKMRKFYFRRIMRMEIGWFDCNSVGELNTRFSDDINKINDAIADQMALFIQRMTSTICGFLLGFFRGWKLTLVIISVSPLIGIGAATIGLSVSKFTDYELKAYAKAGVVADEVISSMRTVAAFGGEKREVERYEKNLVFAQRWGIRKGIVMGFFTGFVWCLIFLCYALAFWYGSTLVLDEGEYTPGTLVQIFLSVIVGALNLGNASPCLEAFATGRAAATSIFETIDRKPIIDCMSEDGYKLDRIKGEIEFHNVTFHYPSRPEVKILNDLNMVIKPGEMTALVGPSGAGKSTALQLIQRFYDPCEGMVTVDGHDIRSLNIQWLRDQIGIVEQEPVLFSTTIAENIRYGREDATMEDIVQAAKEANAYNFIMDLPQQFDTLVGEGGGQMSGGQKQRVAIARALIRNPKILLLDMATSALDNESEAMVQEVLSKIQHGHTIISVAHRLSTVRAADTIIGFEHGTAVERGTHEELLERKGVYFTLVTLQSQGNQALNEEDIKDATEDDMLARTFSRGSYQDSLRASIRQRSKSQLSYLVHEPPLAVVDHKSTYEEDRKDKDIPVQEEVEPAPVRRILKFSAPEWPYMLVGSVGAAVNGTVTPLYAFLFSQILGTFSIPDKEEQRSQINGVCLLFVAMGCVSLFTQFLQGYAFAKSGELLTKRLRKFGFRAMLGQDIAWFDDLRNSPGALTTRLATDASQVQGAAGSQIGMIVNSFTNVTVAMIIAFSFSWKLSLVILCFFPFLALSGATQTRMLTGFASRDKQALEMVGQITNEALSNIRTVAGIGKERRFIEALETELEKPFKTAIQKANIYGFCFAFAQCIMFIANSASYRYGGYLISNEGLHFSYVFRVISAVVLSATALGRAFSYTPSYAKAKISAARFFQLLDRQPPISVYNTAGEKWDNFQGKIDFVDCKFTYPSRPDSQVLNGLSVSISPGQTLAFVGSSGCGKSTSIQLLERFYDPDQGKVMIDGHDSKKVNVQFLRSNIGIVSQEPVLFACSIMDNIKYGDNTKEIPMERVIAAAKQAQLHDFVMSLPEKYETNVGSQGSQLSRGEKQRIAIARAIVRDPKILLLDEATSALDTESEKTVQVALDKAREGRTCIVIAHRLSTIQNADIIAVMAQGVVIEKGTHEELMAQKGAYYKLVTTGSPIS
T6 sequence (Q9Y6L6 whole entry): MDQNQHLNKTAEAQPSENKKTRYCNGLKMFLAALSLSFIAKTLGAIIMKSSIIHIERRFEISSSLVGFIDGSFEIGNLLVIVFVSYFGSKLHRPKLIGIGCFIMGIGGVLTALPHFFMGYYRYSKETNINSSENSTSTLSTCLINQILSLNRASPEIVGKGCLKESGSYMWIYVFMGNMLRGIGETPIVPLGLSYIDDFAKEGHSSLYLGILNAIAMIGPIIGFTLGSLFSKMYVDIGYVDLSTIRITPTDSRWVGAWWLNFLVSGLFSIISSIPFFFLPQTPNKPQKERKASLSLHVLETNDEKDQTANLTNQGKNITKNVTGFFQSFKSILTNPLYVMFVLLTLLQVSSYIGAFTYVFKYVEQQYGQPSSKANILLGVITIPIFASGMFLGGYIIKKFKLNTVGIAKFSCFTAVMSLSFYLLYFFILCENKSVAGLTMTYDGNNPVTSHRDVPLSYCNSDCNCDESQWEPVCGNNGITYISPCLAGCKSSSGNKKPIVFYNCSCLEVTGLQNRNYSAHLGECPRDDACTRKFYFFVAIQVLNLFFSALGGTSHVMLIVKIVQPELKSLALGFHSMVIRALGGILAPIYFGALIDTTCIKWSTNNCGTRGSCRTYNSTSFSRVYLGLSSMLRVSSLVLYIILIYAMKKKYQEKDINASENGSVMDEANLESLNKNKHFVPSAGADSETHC

`Cc1[nH]c2nc(N)nc(C)c2c1-c1ccc(C#N)c2c1OCO2` [DNDI-6174] gave an IC50 (CYP2D6; CYP2D6, read-out: Direct inhibition IC50) of 19 µM, an IC50 (CYP2D6; [4]) of 0.49 µM and an IC50 (CYP2D6; [5]) of 9.8 µM. It also gave an IC50 (CYP2C8; CYP2C8, read-out: Direct inhibition IC50) of over 20 µM, an IC50 (CYP2C8; [4]) of 3.2 µM and an IC50 (CYP2C8; [5]) of over 20 µM. The IC50 (CYP1A2; CYP1A2, read-out: Direct inhibition IC50) was 5.1 µM, the IC50 (CYP1A2; [4]) was 1 µM and the IC50 (CYP1A2; [5]) was 3.4 µM. For the same compound, the IC50 (CYP3A4/5; probe midazolam (1'-hydroxylation), CYP3A4/5, midazolam) was over 20 µM, the IC50 at 30 min (CYP3A4/5; probe midazolam (1'-hydroxylation), midazolam, with NADPH preincubation) was 1.9 µM and the IC50 at 30 min (CYP3A4/5; probe midazolam (1'-hydroxylation), midazolam, without NADPH preincubation) was over 20 µM. The IC50 (CYP3A4/5; probe testosterone (6β-hydroxylation), CYP3A4/5, testosterone) was 12.3 µM, the IC50 at 30 min (CYP3A4/5; probe testosterone (6β-hydroxylation), testosterone, with NADPH preincubation) was 0.71 µM and the IC50 at 30 min (CYP3A4/5; probe testosterone (6β-hydroxylation), testosterone, without NADPH preincubation) was 8 µM. For the same compound, the EC50 [1] was 0.075 ± 0.002 µM, the CC50 [2] was over 50 µM and the activity remaining (BSEP) was over 50%. For the same compound, the IC50 (OATP1B3) was 16 µM, the activity remaining (OAT3) was over 50% and the IC50 (OATP1B1) was 22 µM. The “activity (% of DMSO control)” value (KV channel) was 98.7%, the “activity (% of DMSO control)” value [3] was 89.6% and the “activity (% of DMSO control)” value (BZD (central)) was 90.2%. The “activity (% of DMSO control)” value (NMDA receptor) was 89.6% and the “activity (% of DMSO control)” value (Na+ channel (site 2)) was 73.9%.
